Reference: ChEMBL document CHEMBL4130396, “Bistinospinosides A and B, Dimeric Clerodane Diterpene Glycosides from Tinospora sagittata” (J Nat Prod, 2017)
Positions of bridges follow the written chain, without caps; N, C: chain ends. Non-standard residues stand in square brackets, D forms with d. Residues, ends and D or L forms follow the SMILES beside them. *: point of attachment. X1 = CC[C@H](C)CCCCC(=O)*; Dab = NCC[C@H](N)C(=O)O

Tested on: J774.1
Assay: Antiinflammatory activity in mouse J774.1 cells assessed as inhibition of LPS/[…]-induced NO production after 48 hrs by Griess assay
Format: functional, cell-based
Details: J774.1, 48 h

| IC50 | Structure (SMILES) |
| --- | --- |
| > 50 µM | C[C@@]12C[C@@H](C3=C[C@@H]4O[C@H]3[C@H]3[C@H]5OC(=O)[C@@](O[C@@H]6O[C@H](CO)[C@@H](O)[C@H](O)[C@H]6O)([C@H]34)[C@]3(C)CC[C@H]4C(=O)O[C@H](c6ccoc6)C[C@@]4(C)[C@H]53)OC(=O)[C@@H]1CC[C@]1(C)[C@H]2[C@H]2C=C[C@]1(O[C@@H]1O[C@H](CO)[C@@H](O)[C@H](O)[C@H]1O)C(=O)O2 |
| > 50 µM | C[C@@]12C[C@@H](C3=C[C@H]4O[C@@H]3[C@H]3[C@@H]4[C@H]4OC(=O)[C@]3(O[C@@H]3O[C@H](CO)[C@@H](O)[C@H](O)[C@H]3O)[C@]3(C)CC[C@H]5C(=O)O[C@H](c6ccoc6)C[C@@]5(C)[C@H]43)OC(=O)[C@@H]1CC[C@]1(C)[C@H]2[C@H]2C=C[C@]1(O[C@@H]1O[C@H](CO)[C@@H](O)[C@H](O)[C@H]1O)C(=O)O2 |
| 8.5 µM | CC[C@H](C)CCCCC(=O)N[C@@H](CCN)C(=O)N[C@H](C(=O)N[C@@H](CCN)C(=O)N[C@H]1CCNC(=O)[C@H]([C@@H](C)O)NC(=O)[C@H](CCN)NC(=O)[C@H](CCN)NC(=O)[C@H](CC(C)C)NC(=O)[C@@H](Cc2ccccc2)NC(=O)[C@H](CCN)NC1=O)[C@@H](C)O (X1-[Dab]T[Dab][Dab][Dab][dF]L[Dab][Dab]T; lactam 4-C) |
